We go through three compounds from patent US11396522B2, “Bis-acetal-based substrates for imaging exo-glycosidase activity” (ALECTOS THERAPEUTICS INC., priority 2017, dated 2022).

In series [1] the target is T1, human Galactosylceramidase (GALC) (Homo sapiens, UniProt P54803).
T1 construct: purchased R&D systems
T1 sequence (P54803 43-685): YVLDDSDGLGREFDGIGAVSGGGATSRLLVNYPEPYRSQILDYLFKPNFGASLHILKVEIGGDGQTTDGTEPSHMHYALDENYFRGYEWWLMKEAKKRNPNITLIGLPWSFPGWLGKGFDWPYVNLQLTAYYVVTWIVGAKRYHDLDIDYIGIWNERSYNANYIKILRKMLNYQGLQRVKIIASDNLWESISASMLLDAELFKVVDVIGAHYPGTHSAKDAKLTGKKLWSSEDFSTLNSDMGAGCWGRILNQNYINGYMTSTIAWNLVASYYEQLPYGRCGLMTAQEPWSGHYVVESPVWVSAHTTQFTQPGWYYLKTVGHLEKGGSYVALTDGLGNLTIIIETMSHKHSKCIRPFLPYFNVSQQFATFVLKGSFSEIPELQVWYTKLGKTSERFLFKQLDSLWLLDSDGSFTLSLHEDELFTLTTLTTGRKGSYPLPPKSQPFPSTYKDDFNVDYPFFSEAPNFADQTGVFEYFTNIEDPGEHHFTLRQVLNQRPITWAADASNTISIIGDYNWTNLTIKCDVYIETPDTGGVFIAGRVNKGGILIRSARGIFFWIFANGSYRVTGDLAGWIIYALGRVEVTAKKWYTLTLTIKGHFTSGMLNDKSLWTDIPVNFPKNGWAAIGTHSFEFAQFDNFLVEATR
The series can be described thus: In vitro kinetic assay with human GALC. It counts as biochemical. Particulars: 5 nM recombinant human GALC. The method, then: (§1) For some experiments, fluorescence kinetic assays were performed using a Varian Cary Eclipse Spectrophotometer set for 335/493 nm excitation/emission wavelengths. Slits were set at 10 nm and the detector was set on Medium voltage. Enzymatic reactions with human OGA were carried out in PBS at 37° C. and were started by addition of hOGA (WT, Full-length, expressed in E. coli. as previously described) in a total volume of 160 μL (Starna sub-micro Fluorometer cuvette). For measurements of rates using different concentrations of substrates, a hOGA concentration of 100 nM was used. For hOGA titration, 25 μM of Glyco-BABS were added to various concentration of hOGA. […] EDANS standard curve was established using endpoint fluorescence measurements of serial dilutions of EDANS in the relevant buffer using the same instrument parameters. Inner-Filter effect measurements were carried out in cuvette by measuring fluorescence of several concentrations of EDANS in presence of various concentrations of GlcNAc-BABS. Kinetics with Glc-BABS and GBA enzymes (GBA1 and GBA3 purchased from R&D Systems), kinetics with GALC (R&D systems) and Gal-BABS, pH stability, quenching efficiency, some inner-filter effect experiments and lysates experiments were carried out using a Molecular Devices SpectraMax i3× plate reader. […]

Series [2] is described as follows: pH stability of Glyco-BABS. The format is physicochemical. The following applies: 5 μM, up to 72 h, pH 2 to 10. The text has this:
One concern with the Glyco-BABS design was the known lability of acetals under acidic conditions that has been exploited in pH-sensitive prodrugs or linkers for drug delivery.^41,42 However, we recognized that carbohydrate anomeric acetals are chemically distinct from regular acetals. Due to stabilization by the endocyclic oxygen, we expected these bis-acetals would show stability across a range of physiological pH values. We therefore assessed the stability of the bis-acetal motif toward acid and base hydrolysis (FIG. 8). To do so, we tested the pH stability of 5 μM of GlcNAc-Br-BABS 1, GlcNAc-OH-BABS 2, Glc-OH-BABS 6 and Glc-H-BABS 7 at different pH over time. We prepared solutions at various pH by mixing 0.2 M KCl+0.1 M HCl with 0.2 M KCl+0.1 M KOH. Fluorescence of EDANS and Glyco-BABS solutions (5 μM, 45 μL) at different pH was measured at different time points in Nunc 384-well plates using a SpectraMax i3× plate reader. Data (triplicates) support the highly efficient quenching and the stability of these substrates over a wide range of pH.

Another series has as its target T2, GBA1 (Homo sapiens, UniProt P04062).
T2 sequence (P04062 40-536): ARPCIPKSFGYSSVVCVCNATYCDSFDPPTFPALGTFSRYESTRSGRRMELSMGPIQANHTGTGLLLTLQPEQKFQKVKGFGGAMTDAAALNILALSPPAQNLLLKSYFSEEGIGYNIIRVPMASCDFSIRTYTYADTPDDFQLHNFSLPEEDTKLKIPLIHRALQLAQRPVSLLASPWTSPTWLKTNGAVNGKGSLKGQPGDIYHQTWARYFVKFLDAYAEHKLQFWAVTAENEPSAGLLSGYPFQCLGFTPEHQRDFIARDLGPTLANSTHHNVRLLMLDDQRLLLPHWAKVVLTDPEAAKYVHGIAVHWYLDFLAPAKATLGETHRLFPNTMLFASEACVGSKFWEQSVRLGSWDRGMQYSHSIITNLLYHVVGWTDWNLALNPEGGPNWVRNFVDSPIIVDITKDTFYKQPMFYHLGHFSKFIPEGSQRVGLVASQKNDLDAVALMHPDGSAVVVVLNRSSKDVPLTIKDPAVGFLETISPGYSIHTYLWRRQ
The series can be described thus: In vitro kinetic assay with GBA1. The format is biochemical. Also noted: purchased R&D Systems. The following applies: GBA enzymes at 50 nM. The method, then:
as §1

Take `CN(C)c1ccc(/N=N/c2ccc(C(=O)NCc3cn(CCOCCO[C@H](O[C@@H]4O[C@H](CO)[C@H](O)[C@H](O)[C@H]4O)[C@@](C)(Br)C(=O)NCCNc4cccc5c(S(=O)(=O)O)cccc45)nn3)cc2)cc1` [Compound 4, 5-((2-((2R,3R)-2-bromo-3-(2-(2-(4-((4-((E)-(4-(dimethylamino)phenyl)diazenyl)benzamido)methyl)-1H-1,2,3-triazol-1-yl)ethoxy)ethoxy)-2-methyl-3-(((2S,3R,4S,5R,6R)-3,4,5-trihydroxy-6-(hydroxymethyl)tetrahydro-2H-pyran-2-yl)oxy)propanamido)ethyl)amino)naphthalene-1-sulfonic Acid]: in series [1], the “turnover by human GALC” value is listed as “turned over”.
The same measure, in the same setting: the value for `CN(C)c1ccc(/N=N/c2ccc(C(=O)NCc3cn(CCOCCO[C@H](O[C@@H]4O[C@H](CO)[C@H](O)[C@H](O)[C@H]4O)[C@@](C)(O)C(=O)NCCNc4cccc5c(S(=O)(=O)O)cccc45)nn3)cc2)cc1` [Compound 5, 5-((2-((2R,3R)-3-(2-(2-(4-((4-((E)-(4-(dimethylamino)phenyl)diazenyl)benzamido)methyl)-1H-1,2,3-triazol-1-yl)ethoxy)ethoxy)-2-hydroxy-2-methyl-3-(((2S,3R,4S,5R,6R)-3,4,5-trihydroxy-6-(hydroxymethyl)tetrahydro-2H-pyran-2-yl)oxy)propanamido)ethyl)amino)naphthalene-1-sulfonic Acid] was “turned over”.
Take `CN(C)c1ccc(/N=N/c2ccc(C(=O)NCc3cn(CCOCCOC(CC(=O)NCCNc4cccc5c(S(=O)(=O)O)cccc45)O[C@@H]4O[C@H](CO)[C@@H](O)[C@H](O)[C@H]4O)nn3)cc2)cc1` (stereo partly drawn) [Compound 7, 5-((2-(3-(2-(2-(4-((4-((E)-(4-(dimethylamino)phenyl)diazenyl)benzamido)methyl)-1H-1,2,3-triazol-1-yl)ethoxy)ethoxy)-3-(((2S,3R,4S,5S,6R)-3,4,5-trihydroxy-6-(hydroxymethyl)tetrahydro-2H-pyran-2-yl)oxy)propanamido)ethyl)amino)naphthalene-1-sulfonic Acid]: in series [2], the “pH stability (increase of fluorescence)” value is recorded as “no significant increase of fluorescence”. Further, on GBA1, the “turnover by GBA1” value was “turned over by GBA1 only”.
